What was measured:
TRβ LBD = TRβ LBD (Homo sapiens, UniProt P10828); conditions: ratio of THRα to THRβ binding force
Procedure: Main Experimental Material and Apparatus:
All compounds were dissolved in dimethyl sulfoxide to prepare a 10 mmol stock solution.
For long-term storage, compounds shall be placed into a refrigerator at −20° C.
3.1 Preparation of 1× Reaction Buffer

[1] = Pharmacokinetic evaluation in rats after intragastric infusion; assay type: in vivo; conditions: male SD rats, 2 mg/kg single dose, plasma
Procedure: Rats were used as test animals. […] The pharmacokinetic behaviors of the compounds of the present invention in rats were studied, and the pharmaceutical metabolism characteristics thereof were evaluated. […] The non-compartment model method (NCA) was utilized to calculate the pharmacokinetic parameters, particularly as shown in Table 2 below.
Drug Preparation: a certain amount of the drug was taken and added into a 2% Klucel LF+0.1% Tween 80 aqueous solution, to prepare a clear solution or a uniform suspension.
Dosage: SD rats were fasted overnight and given the drug by intragastric infusion at an administrated dose of 2 mg/kg and an administrated volume of 10 mL/kg each.
The heparinized sample tubes were then stored at −20° C., and the rats were allowed to eat food 2 h after the dosage.
Determination of contents of the compounds to be tested in the plasma of rats after intragastric infusion of the drugs at different concentrations: the plasma samples were thawed at room temperature, 50 μL each was taken and added into 130 μL of an internal standard working solution (1000 ng/mL, acetonitrile, tolbutamide), and the mixture was whirled for about 1 min and then centrifugated at 4° C. and 13000 rpm for 10 min. 50 μL of the supernatant was taken and mixed with 100 μL of 50% acetonitrile water, and then introduced for LC/MS/MS analysis.

Chain of TRβ LBD (P10828 217-461 limits assumed, other chains not shown): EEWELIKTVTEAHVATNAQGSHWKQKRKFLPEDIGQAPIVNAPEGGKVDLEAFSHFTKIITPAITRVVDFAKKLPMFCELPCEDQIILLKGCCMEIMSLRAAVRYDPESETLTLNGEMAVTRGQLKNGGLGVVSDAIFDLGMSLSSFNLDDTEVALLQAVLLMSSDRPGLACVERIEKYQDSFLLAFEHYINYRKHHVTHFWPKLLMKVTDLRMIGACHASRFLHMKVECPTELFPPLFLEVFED
Chain of TRβ LBD (P28702 whole entry partner, other chains not shown, the tested form may be a part): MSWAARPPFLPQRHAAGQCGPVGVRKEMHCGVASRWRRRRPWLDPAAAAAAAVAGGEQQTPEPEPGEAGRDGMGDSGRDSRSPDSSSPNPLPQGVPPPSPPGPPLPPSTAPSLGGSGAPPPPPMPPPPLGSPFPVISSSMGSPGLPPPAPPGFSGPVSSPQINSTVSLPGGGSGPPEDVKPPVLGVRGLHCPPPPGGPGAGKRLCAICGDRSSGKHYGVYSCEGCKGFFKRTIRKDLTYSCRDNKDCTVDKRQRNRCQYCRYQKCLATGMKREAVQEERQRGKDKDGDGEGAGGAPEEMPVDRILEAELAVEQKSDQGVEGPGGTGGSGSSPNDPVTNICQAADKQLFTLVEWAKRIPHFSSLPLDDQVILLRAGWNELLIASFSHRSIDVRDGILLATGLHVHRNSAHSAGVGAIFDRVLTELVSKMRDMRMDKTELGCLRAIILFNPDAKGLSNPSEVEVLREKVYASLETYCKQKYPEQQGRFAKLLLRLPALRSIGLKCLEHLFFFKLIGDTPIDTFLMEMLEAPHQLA

Compound | THRα/β selectivity (factor) (TRβ LBD) | Curve area [1] [ng·h/mL] | Time to peak [1] [h] | half-life ([1]; rat, po) [min]
N#Cc1nn(-c2cc(Cl)c(Oc3n[nH]c(=O)c4c3CCCC4)c(Cl)c2)c(=O)[nH]c1=O [Embodiment 1, 2-(3,5-dichloro-4-((4-oxo-3,4,5,6,7,8-hexahydrophthalazin-1-yl)oxy)phenyl)-3,5-dioxo-2,3,4,5-tetrahydro-1,2,4-triazine-6-nitrile] | >8.1 |  |  | 
CC1(C)CCc2c(Oc3c(Cl)cc(-n4nc(C#N)c(=O)[nH]c4=O)cc3Cl)n[nH]c(=O)c21 [Embodiment 4, 2-(3,5-dichloro-4-((7,7-dimethyl-1-oxo-2,5,6,7-tetrahydro-1H-cyclopenta[d]pyridazin-4-yl)oxy)phenyl)-3,5-dioxo-2,3,4,5-tetrahydro-1,2,4-triazine-6-carbonitrile] |  | 9242 ± 1245 | 5.33 ± 1.15 | 308 ± 49.8
N#Cc1nn(-c2cc(Cl)c(Oc3n[nH]c(=O)c4ccccc34)c(Cl)c2)c(=O)[nH]c1=O [Embodiment 9, 2-(3,5-dichloro-4-((4-oxo-3,4-dihydrophthalazin-1-yl)oxo)phenyl)-3,5-dioxo-2,3,4,5-tetrahydro-1,2,4-triazine-6-nitrile] | >58.8 |  |  | 
N#Cc1nn(-c2cc(Cl)c(Oc3n[nH]c(=O)c4c(Cl)cccc34)c(Cl)c2)c(=O)[nH]c1=O [Embodiment 10, 2-(3,5-dichloro-4-((5-chloro-4-oxo-3,4-dihydrophthalazin-1-yl)oxo)phenyl)-3,5-dioxo-2,3,4,5-tetrahydro-1,2,4-triazine-6-nitrile] | >6.80 |  |  | 

Source: patent publication US12459926B2, “THRβ receptor agonist compound and preparation method and use thereof” (Terns, Inc., priority 2018, dated 2025)
